Reference: ChEMBL document CHEMBL1201862, “PubChem BioAssay data set” (2004)
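Test compounds were applied to cells in 96-well plates for 48 hours at 5 doses. At the GI50, growth is halved.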 The source made the active and inactive calls. Cut-off read from the data, not from the text of the source: active = GI50 up to about 1.1 µM and inactive = higher.

Columns and labels:
Assay in all cases: DTP human tumour cell line panel, 48 h
[1] = tested on: SK-OV-3
[2] = tested on: T47D
[3] = tested on: NCI/ADR-RES
[4] = tested on: SR
[5] = tested on: MDA-MB-435
[6] = tested on: SNB-19
[7] = tested on: OVCAR-4
[8] = tested on: HCT-15
[9] = tested on: SN12C
[10] = tested on: LOX IMVI
[11] = tested on: NCI-H23
[12] = tested on: HCC 2998
[13] = tested on: SK-MEL-2
[14] = tested on: UACC-257
[15] = tested on: OVCAR-8
[16] = tested on: ACHN
[17] = tested on: CAKI-1
[18] = tested on: RPMI-8226
[19] = tested on: NCI-H522
[20] = tested on: HCT-116

## COc1cc2c(cc1O)CC1c3c(cc(O)c(OC)c3-2)CCN1C (stereo not given)
[1]
  GI50: > 100 µM (inactive)
[2]
  GI50: > 100 µM (inactive)
[3]
  GI50: > 100 µM (inactive)
[4]
  GI50: > 59.7 µM (inactive)
[5]
  GI50: > 100 µM (inactive)
[6]
  GI50: > 100 µM (inactive)
[7]
  GI50: > 100 µM (inactive)
[8]
  GI50: > 100 µM
[9]
  GI50: > 100 µM (inactive)
[10]
  GI50: > 100 µM (inactive)
[11]
  GI50: > 100 µM (inactive)
[12]
  GI50: > 100 µM (inactive)
[13]
  GI50: > 100 µM (inactive)
[14]
  GI50: > 100 µM (inactive)
[15]
  GI50: > 100 µM (inactive)
[16]
  GI50: > 100 µM (inactive)
[17]
  GI50: > 100 µM (inactive)
[18]
  GI50: > 100 µM (inactive)
[19]
  GI50: 56.4 µM (inactive)
[20]
  GI50: > 78 µM (inactive)

## CC(C)=CCC[C@@H](C)C1=C(Nc2ccccc2F)C(=O)C(C)=C(O)C1=O
[1]
  GI50: 6.47 µM (inactive)
[2]
  GI50: 13.6 µM (inactive)
[3]
  GI50: 2.55 µM (inactive)
[4]
  GI50: 11 µM (inactive)
[5]
  GI50: 6.22 µM (inactive)
[6]
  GI50: 4.42 µM (inactive)
[7]
  GI50: 9.98 µM (inactive)
[8]
  GI50: 3.77 µM
[9]
  GI50: 6.97 µM (inactive)
[10]
  GI50: 4.78 µM (inactive)
[11]
  GI50: 3.66 µM (inactive)
[12]
  GI50: 7.59 µM (inactive)
[13]
  GI50: 8.75 µM (inactive)
[14]
  GI50: 10.1 µM (inactive)
[15]
  GI50: 3.49 µM (inactive)
[16]
  GI50: 3.5 µM (inactive)
[17]
  GI50: 5.83 µM (inactive)
[18]
  GI50: 17.4 µM (inactive)
[19]
  GI50: 4.18 µM (inactive)
[20]
  GI50: 4.58 µM (inactive)

## COc1ccc(C(OCC2OC(n3cc(C)c(=O)[nH]c3=O)CC2n2cc(Cn3cc(F)c(=O)[nH]c3=O)nn2)(c2ccccc2)c2ccccc2)cc1 (stereo not given)
[1]
  GI50: 5.3 µM (inactive)
[2]
  GI50: 5.71 µM (inactive)
[3]
  GI50: 31.6 µM (inactive)
[4]
  GI50: 2.51 µM (inactive)
[5]
  GI50: 1.75 µM (inactive)
[6]
  GI50: 6.07 µM (inactive)
[7]
  GI50: 16.4 µM (inactive)
[8]
  GI50: 4.5 µM
[9]
  GI50: 5.71 µM (inactive)
[10]
  GI50: 4.38 µM (inactive)
[11]
  GI50: 8.28 µM (inactive)
[12]
  GI50: 3.31 µM (inactive)
[13]
  GI50: 6.31 µM (inactive)
[14]
  GI50: 11.5 µM (inactive)
[15]
  GI50: 9.57 µM (inactive)
[16]
  GI50: 10.8 µM (inactive)
[17]
  GI50: 8.38 µM (inactive)
[18]
  GI50: 3.04 µM (inactive)
[19]
  GI50: 3.77 µM (inactive)
[20]
  GI50: 3.38 µM (inactive)

## CCC1NC(=O)C1NC(=O)OC (stereo not given)
[1]
  GI50: > 100 µM (inactive)
[2]
  GI50: > 100 µM (inactive)
[3]
  GI50: > 100 µM (inactive)
[4]
  GI50: > 100 µM (inactive)
[5]
  GI50: > 100 µM (inactive)
[6]
  GI50: > 100 µM (inactive)
[7]
  GI50: > 100 µM (inactive)
[8]
  GI50: > 100 µM
[9]
  GI50: > 100 µM (inactive)
[10]
  GI50: > 100 µM (inactive)
[11]
  GI50: > 100 µM (inactive)
[12]
  GI50: > 100 µM (inactive)
[13]
  GI50: > 100 µM (inactive)
[14]
  GI50: > 100 µM (inactive)
[15]
  GI50: > 100 µM (inactive)
[16]
  GI50: > 100 µM (inactive)
[17]
  GI50: > 100 µM (inactive)
[18]
  GI50: > 100 µM (inactive)
[19]
  GI50: > 100 µM (inactive)
[20]
  GI50: > 100 µM (inactive)

## CCCCC[C@H]1CC=CC(=O)O1
[1]
  GI50: 10.8 µM (inactive)
[2]
  GI50: 4.55 µM (inactive)
[3]
  GI50: 5.92 µM (inactive)
[4]
  GI50: 2.03 µM (inactive)
[5]
  GI50: 7.33 µM (inactive)
[6]
  GI50: 10.1 µM (inactive)
[7]
  GI50: 5.7 µM (inactive)
[8]
  GI50: 4.2 µM
[9]
  GI50: 6.68 µM (inactive)
[10]
  GI50: 4.65 µM (inactive)
[11]
  GI50: 17.9 µM (inactive)
[12]
  GI50: 4.25 µM (inactive)
[13]
  GI50: 5.43 µM (inactive)
[14]
  GI50: 12.1 µM (inactive)
[15]
  GI50: 8.28 µM (inactive)
[16]
  GI50: 7.13 µM (inactive)
[17]
  GI50: 2.55 µM (inactive)
[18]
  GI50: 2.86 µM (inactive)
[19]
  GI50: 2.78 µM (inactive)
[20]
  GI50: 3.16 µM (inactive)

## CN1CCN(c2cc3[nH]c(-c4ccc(Cl)cc4)nc3cc2F)CC1
[1]
  GI50: 22.2 µM (inactive)
[2]
  GI50: 19.1 µM (inactive)
[3]
  GI50: 21 µM (inactive)
[4]
  GI50: 24.1 µM (inactive)
[5]
  GI50: 11.4 µM (inactive)
[6]
  GI50: 21.3 µM (inactive)
[7]
  GI50: 22.8 µM (inactive)
[8]
  GI50: 5.42 µM
[9]
  GI50: 26.7 µM (inactive)
[10]
  GI50: 10.5 µM (inactive)
[11]
  GI50: 15.8 µM (inactive)
[12]
  GI50: 4.71 µM (inactive)
[13]
  GI50: 16.8 µM (inactive)
[14]
  GI50: 10.8 µM (inactive)
[15]
  GI50: 26.9 µM (inactive)
[16]
  GI50: 12.5 µM (inactive)
[17]
  GI50: 19.5 µM (inactive)
[18]
  GI50: 14.1 µM (inactive)
[19]
  GI50: 15.6 µM (inactive)
[20]
  GI50: 13.8 µM (inactive)
